target: Nociceptin receptor (Homo sapiens, UniProt P41146); assay: Cell-Based NOP Assay: Formula (I) compounds were tested for antagonism of the nociceptin receptor (NOP) in a cell-based cAMP assay, using the LANCE cAMP Detection Kit, Perkin Elmer (Waltham, Mass.). This assay (LANCE cAMP) is a homogeneous, time-resolved fluorescence resonance energy transfer (TR-FRET) immunoassay designed to measure cAMP produced upon modulation of adenylyl cyclase activity by G protein-coupled receptors (GPCRs).ProtocolCells expressing human opioid NOP (ValiScreen cell line, cat #ES-230-C Perkin Elmer (Waltham, Mass.) were dispensed in simulation buffer (5 mM Hepes, 0.1% BSA, 0.5 mM IBMX in Hanks Buffered Saline Solution) at 2.5 μL cells per well (400 cells/well) into a 1536 white TC-treated assay plate. Compound was then added and plates were incubated for 15 minutes at room temperature. To each well was added 2.5 μL of a solution containing forskolin (3 μM final) and nociceptin peptide (390 pM final) diluted in stimulation buffer, and the plates were incubated for 30 minutes at room temperature. To each well was dispensed 5 μL of LANCE Ultra detection (1:300 dilution of anti-cAMP ULight with a 1:100 dilution of Eu-cAMP tracer diluted in cAMP Detection Buffer) reagent, and the plates were incubated for 1 hr at room temperature. The plate was then read on the ViewLux microplate reader (Perkin Elmer, Waltham, Mass.) using the LANCE 1536 protocol with 60 second exposure times and 50 μs delay. This protocol has an excitation wavelength of 340 nm (DUG11 filter) and emission wavelengths of 615 nm (Eu-Donor) and 665 nm (Alexa 647 cAMP antibody acceptor).Data AnalysisData was analyzed, normalized, and visualized using ACAS (John McNeil & Co.). Efficacy was calculated using activity of the vehicle (DMSO) as 0% efficacy and the activity of the corresponding reference positive control (SCH 221510, Tocris Bioscience (Pittsburgh, Pa.), Catalog number 3240) as 100% efficacy. Activity was calculated as the ratio of donor and acceptor emissions. All curve fits and IC50 determinations were performed using a non-linear regression model. The IC50 value was measured as the concentration at which half-maximal response was calculated.
Sequence (P41146 whole entry): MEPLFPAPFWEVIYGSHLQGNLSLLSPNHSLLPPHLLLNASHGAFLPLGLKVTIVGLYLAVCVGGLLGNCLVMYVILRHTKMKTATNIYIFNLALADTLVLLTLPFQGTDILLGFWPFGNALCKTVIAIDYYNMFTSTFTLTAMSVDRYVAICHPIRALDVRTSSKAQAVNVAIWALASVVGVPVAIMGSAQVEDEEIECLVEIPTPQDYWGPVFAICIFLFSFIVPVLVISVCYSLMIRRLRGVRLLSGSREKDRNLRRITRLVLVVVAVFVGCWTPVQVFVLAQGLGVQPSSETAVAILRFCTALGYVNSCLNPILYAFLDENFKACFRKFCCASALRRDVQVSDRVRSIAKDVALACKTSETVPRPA

Structure (SMILES)	IC50
COCC1(NCCC2CCC(c3cnccc3C)CC2)CCOCC1 (centres undefined)	100 to 1000 nM
CN1CCC(NCCC2CCC(c3ccc(Cl)cc3F)CC2)CC1 (centres undefined)	100 to 1000 nM
CC1(NCCC2CCC(c3ccccc3Cl)CC2)CCCC1 (centres undefined)	100 to 1000 nM
CC1(NCCC2CCC(c3ccc(F)cc3F)CC2)CCCC1 (centres undefined)	100 to 1000 nM
Oc1cccc([C@H]2CC[C@@H](CCNC3CCOCC3)CC2)c1	100 to 1000 nM
Cc1ccncc1[C@H]1CC[C@H](CCNC2CCOCC2)CC1	100 to 1000 nM
Cc1cc(F)ccc1C1CCC(CCNC2CCCCC2)CC1 (centres undefined)	100 to 1000 nM
O=C(NCC1CC1)C1(NCC[C@H]2CC[C@@H](c3ccc(F)cc3Cl)CC2)CCCC1	100 to 1000 nM
NC(=O)C1(NCC[C@H]2CC[C@@H](c3c(F)cc(F)cc3F)CC2)CCOCC1	100 to 1000 nM
Cc1nccnc1[C@H]1CC[C@@H](CCNC2CCOCC2)CC1	100 to 1000 nM
Clc1cccnc1C1CCC(CCNC2CCCCC2)CC1 (centres undefined)	100 to 1000 nM
CN(C)C(=O)C1(NCC[C@H]2CC[C@@H](c3ccc(F)cc3Cl)CC2)CCCC1	100 to 1000 nM
Cc1cc(F)c(F)cc1[C@H]1CC[C@H](CCNC2(C(N)=O)CCOCC2)CC1	100 to 1000 nM
Cc1c(C#N)cccc1[C@H]1CC[C@@H](CCNC2CCOCC2)CC1	100 to 1000 nM
CNC(=O)C1(NCCC2CCC(c3ncccc3Cl)CC2)CCCC1 (centres undefined)	100 to 1000 nM
CN1CCC(NCCC2CCC(c3ncc(F)cc3Cl)CC2)CC1 (centres undefined)	100 to 1000 nM
COCC1(NCCC2CCC(c3ncc(F)cc3Cl)CC2)CCOCC1 (centres undefined)	100 to 1000 nM
COCC1(NCCC2CCC(c3cccc(F)c3Cl)CC2)CCOCC1 (centres undefined)	100 to 1000 nM
CC1(NCCC2CCC(c3ncccc3Cl)CC2)CCCC1 (centres undefined)	100 to 1000 nM
CNC(=O)C1(NCCC2CCC(c3ccc(Cl)cc3F)CC2)CCCC1 (centres undefined)	100 to 1000 nM
NC(=O)C1(NCC[C@H]2CC[C@H](c3cccc(F)c3Cl)CC2)CCOCC1	100 to 1000 nM
NC(=O)C1(NCC[C@H]2CC[C@@H](c3cccc(F)c3Cl)CC2)CCOCC1	100 to 1000 nM
Cc1cccnc1C1CCC(CCNC2(C)CCOCC2)CC1 (centres undefined)	100 to 1000 nM
NC(=O)C1(NCC[C@H]2CC[C@@H](c3ccc(F)cc3Cl)CC2)CCCOC1 (some centres undefined)	100 to 1000 nM
NC(=O)C1(NCCC2CCC(c3ccc(F)cc3F)CC2)CCCC1 (centres undefined)	100 to 1000 nM
CC1(NCC[C@H]2CC[C@@H](c3ncc(F)cc3Cl)CC2)CCNC(=O)C1 (some centres undefined)	100 to 1000 nM
CC1(NCCC2CCC(c3ccccc3Cl)CC2)CCOCC1 (centres undefined)	100 to 1000 nM

Structure (SMILES)	IC50
CC(=O)N1CCC(NCCC2CCC(c3ccc(F)cc3C)CC2)CC1 (centres undefined)	100 to 1000 nM
NC(=O)C1(NCC[C@H]2CC[C@H](c3ccc(F)cc3F)CC2)CCOCC1	100 to 1000 nM
Fc1ccc(Cl)c(C2CCC(CCNC3CCCCC3)CC2)c1 (centres undefined)	100 to 1000 nM
CC1(NCCC2CCC(c3ncc(F)cc3Cl)CC2)CCOCC1 (centres undefined)	100 to 1000 nM
CN1CCC(NCCC2CCC(c3c(F)cccc3Cl)CC2)CC1 (centres undefined)	100 to 1000 nM
NC(=O)C1(NCCC2CCC(c3ccccc3Cl)CC2)CCCC1 (centres undefined)	100 to 1000 nM
Cc1c(C#N)cccc1[C@H]1CC[C@H](CCNC2CCOCC2)CC1	100 to 1000 nM
CC1(NCCC2CCC(c3ncccc3Cl)CC2)CCOCC1 (centres undefined)	100 to 1000 nM
Cc1ccncc1[C@H]1CC[C@@H](CCNC2CCOCC2)CC1	100 to 1000 nM
CC(=O)N1CCC(NCCC2CCC(c3ccc(Cl)cc3F)CC2)CC1 (centres undefined)	100 to 1000 nM
CC1(NCCC2CCC(c3cc(F)ccc3Cl)CC2)CCCC1 (centres undefined)	100 to 1000 nM
Cc1cccnc1[C@H]1CC[C@H](CCNC2CCOCC2)CC1	100 to 1000 nM
Cc1cnccc1C1CCC(CCNC2CCOCC2)CC1 (centres undefined)	100 to 1000 nM
NC(=O)N1CCC(NCCC2CCC(c3ncc(F)cc3Cl)CC2)CC1 (centres undefined)	100 to 1000 nM
Cc1cccnc1C1CCC(CCNC2(C)CCCC2)CC1 (centres undefined)	100 to 1000 nM
Cc1cnccc1[C@H]1CC[C@H](CCNC2CCOCC2)CC1	100 to 1000 nM
Cc1cnccc1C1CCC(CCNC2CCCCC2)CC1 (centres undefined)	100 to 1000 nM
Oc1cccc([C@H]2CC[C@H](CCNC3CCOCC3)CC2)c1	100 to 1000 nM
Cc1cnccc1[C@H]1CC[C@@H](CCNC2CCOCC2)CC1	100 to 1000 nM
Cc1cc(F)ccc1C1CCC(CCNC2(C)CCOCC2)CC1 (centres undefined)	100 to 1000 nM
CN1CCC(NCCC2CCC(c3cc(F)ccc3Cl)CC2)CC1 (centres undefined)	100 to 1000 nM
NC(=O)C1(NCC[C@H]2CC[C@@H](c3ccc(F)cc3Cl)CC2)CCOC1 (some centres undefined)	100 to 1000 nM
Cc1cccnc1C1CCC(CCNC2CCCC2)CC1 (centres undefined)	100 to 1000 nM
NC(=O)C1(NCCC2CCC(c3cc(F)ccc3Cl)CC2)CCCC1 (centres undefined)	100 to 1000 nM
Cc1cccnc1C1CCC(CCNC2CCCCC2)CC1 (centres undefined)	100 to 1000 nM
O=C1C[C@@H](NCC[C@H]2CC[C@H](c3ncc(F)cc3Cl)CC2)CCN1	100 to 1000 nM
Fc1ccc(C2CCC(CCNC3CCOCC3)CC2)c(Cl)c1 (mixture of isomers)	< 1 nM
